The values that follow come from US9572760B2, “Uses of compounds and mixtures from Antrodia cinnamomea mycelia” (Simpson Biotech Co., Ltd., priority 2013, dated 2017).

Molecules are shown by their SMILES.

The assay relates to Mouse primary HSC. The assay can be described thus: Profibrogenic gene expression in primary hepatic stellate cells (qRT-PCR). The class given is cell-based. The settings on record: for Collagen-1 expression / TGF-β expression / TIMP-1 expression / αSMA expression: two concentrations, 72 hrs. From the text: The AML12 (mouse hepatocyte) cells were obtained from the BCRC (Bioresource Collection and Research Center) and cultured in Dulbecco's modified Eagle media (DMEM, Gibco by Invitrogen) with 1% antibiotic antimycotic (Gibco by Invitrogen) and 15% fetal bovine serum (Gibco by Invitrogen). The human Hepatic Stellate Cell, HSC cell line was obtained from the ScienCell Research Laboratory (USA) and cultured in complete medium, Stellate Cell Medium (ScienCell Research Laboratory) with 2% fetal bovine serum (ScienCell Research Laboratory), 1% stellate cell growth supplement (ScienCell Research Laboratory) and 1% penicillin/streptomycin solution (ScienCell Research Laboratory). It is well known that TGF-β1 can activation of HSC, which was used as a positive control, the HSC cells were seeded in plate for 24 h and then the cells were replaced with medium containing 10 ng TGF-β1 (PeproTech, USA). For primary hepatic stellate cell isolation, C57BL/6 mice were anesthetized by intraperitoneal injection of ketamine and xylazine. […] Mouse livers were perfused in situ with 0.5 mM EGTA containing calcium-free salt solution (8 ml/min, 37° C. for 5 minutes), followed by perfusion with 2-step 0.05% collagenase D and pronase containing buffer (Roche Molecular Biochemicals, Indianapolis, Ind.) for 5 and 10 minutes, respectively. The harvested liver was minced gently on a Petri dish and additional incubation with protease containing buffer at 37° C. for 25 minutes. Then, the liver was filtered with 70 μm cell strainer. Cells were centrifuged and collected followed by 8.2% Nycodenz (Accurate Chemical and Scientific Corp.). The cell lines were cultured at 37° C. in a humidified atmosphere containing 5% CO2.
Exponentially growing cells were harvested and seeded in a 6-well microtiter plate. Each well of cells were collected to eppendrof in 1 mL of TRIzol buffer (Invitrogen, Carlsbad, Calif., USA), and then mixed with 0.5 mL chloroform/isoamyl alcohol (24:1), eppendrofs were centrifuged at 12,000×g for 10 min at 4° C. The supernatant was transferred to a fresh tube, and isopropanol was added, mix well and stored at −80° C. overnight. The reaction mixture was centrifuged at 12,000×g for 30 min at 4° C. to produce a rude RNA pallet, the pellet was washed with 70% ethanol and air-dried. The concentrations of total RNA were measured by absorbance at 260 nm using a NanoDrop ND-1000 (NanoDrop, USA).
Reverse transcription reaction was performed using a commercially available set of High Capacity RNA-to-cDNA Kit (Applied Biosystems, USA). cDNA was prepared from 2 μg of total RNA per 20 μl reaction, according to the manufacturer's instructions—37° C. for 60 minutes, 95° C. for 5 minutes, and hold at 4° C. The resulting cDNA was to a final concentration of 100 ng/μl and constituted a matrix in further experiments.
Amplification and detection the gene expression by real-time PCR were performed using StepOne plus Real-time PCR System (Applied Biosystems, USA). Samples were assayed in a 10 μl reaction mixture containing 2 μl of template DNA, 5 μl of 2× TaqMan PCR Master Mix (Applied Biosystems, Life Technologies, Foster City, Calif., USA), 0.5 μl of 20× assay mix containing probe, forward and reverse primer (Applied Biosystems, Life Technologies, Foster City, Calif., USA), whereby qPCR targets with the following information were used: (a) α-SMA, Assay ID Rn01759928_g1, (b) TIMP-1, Assay ID Rn00587558_m1, (c) TGF-β1, Assay ID Rn00572010_m1, (d) Collagen I, Assay ID Rn 01463838_m1, (e) GAPDH, Assay ID Rn1462662_g1. To control variation in mRNA concentration, all results were normalized to the housekeeping gene, GAPDH. Relative quantitation was performed using the comparative ΔΔCt method according to the manufacturer's instructions. The cycling conditions used were as follows: 50° C. for 2 min, 95° C. for 10 min followed by 40 cycles of 95° C. for 15 s and 60° C. for 1 min each. […]
A general note: In qPCR the cycle at which signal appears reflects the starting amount.

As for `CC(C)=CCOc1ccc(C2=C(CC(C)C)C(=O)N(O)C2=O)cc1` [Compound C, 3-isobutyl-4-[4-(3-methyl-2-butenyloxy)phenyl]-1H-pyrrol-1-ol-2,5-dione], the “anti-fibrosis effect on primary HSC (summary)” value is “anti-fibrosis effect”, the Collagen-1 expression result was “dose-dependent effect”, the TGF-β expression result is “dose-dependent effect” and the TIMP-1 expression result is on record as “dose-dependent effect”. Besides, the αSMA expression result was “dose-dependent effect”.
Consider `CC(C)=CCOc1ccc(C2=C(CC(C)C)C(=O)NC2=O)cc1` [Compound B, 3-isobutyl-4-[4-(3-methyl-2-butenyloxy)phenyl]-1H-pyrrol-2,5-dione], for which the “anti-fibrosis effect on primary HSC (summary)” value is on record as “anti-fibrosis effect”, the Collagen-1 expression result is “dose-dependent effect”, the TGF-β expression result was “dose-dependent effect” and the TIMP-1 expression result is “dose-dependent effect”. For the same compound, the αSMA expression entry was “dose-dependent effect”.
